Assay results as given in EP0349061B1, “Immunosuppressant agent” (Merck & Co., Inc., priority 1988, dated 1990).
Read-outs that look alike come from different tables or passages of the source.

Tested on: mouse T lymphocytes
Test: T-cell proliferation assay (ionomycin plus PMA induced T-cell stimulation, tritiated thymidine uptake)
Type: cell-based, C57B1/6 mice
Settings: for IC50: read-out: IC₅₀, inhibition of T-cell proliferation
Protocol: The principle of this assay is to measure the proliferation of mouse T lymphocytes stimulated with the combination of ionomycin plus PMA. A positive sample in this assay will inhibit T-cell proliferation, as indicated by reduced tritiated thymidine uptake.
Purified demethimmunomycin, as prepared by HPLC above, was dissolved in absolute ethanol at 1 mg/ml.
Spleens from C57B1/6 mice were taken under sterile conditions and gently dissociated in ice-cold RPMI 1640 culture medium (GIBCO, Grand Island, N.Y.) supplemented with 10% heat-inactivated fetal calf serum (GIBCO). Cells were pelleted by centrifugation at 1500 rpm for 8 minutes. Contaminating red cells were removed by treating the pellet with ammonium chloride lysing buffer (GIBCO) for 2 minutes at 4°C. Cold medium was added and cells were again centrifuged at 1500 rpm for 8 minutes. T lymphocytes were then isolated by separation of the cell suspension on nylon wool columns as follows: Nylon wool columns were prepared by packing approximately 4 grams of washed and dried nylon wool into 20 ml plastic syringes. The columns were sterilized by autoclaving at 250°F [120°C] for 30 minutes. Nylon wool columns were wetted with warm (37°C) culture medium and rinsed with the same medium. Washed spleen cells resuspended in warm medium were slowly applied to the nylon wool. The columns were then incubated in an upright position at 37°C for 1 hour. Non-adherent T lymphocytes were eluted from the columns with warm culture medium and the cell suspensions were spun as above.
Purified T lymphocytes were resuspended at 2.5 x 10⁵ cells/ml in complete culture medium composed of RPMI 1640 medium with 10% heat-inactivated fetal calf serum, […] glutamine, 1 mM sodium pyruvate, 2 x 10⁻⁵ M 2-mercaptoethanol and 50 »g/ml gentamycin. Ionomycin was added at 250 ng/ml and PMA at 10 ng/ml. The cell suspension was immediately distributed into 96 well flat-bottom microculture plates (Costar)(registered trade mark) at 200 »l/well. The control, being the medium without test drug, and various below-indicated dilutions of the sample (above-described purified demethimmunomycin) to be tested were then added in triplicate wells at 20 »l/well. L-679,934 was used as a standard. The culture plates were then incubated at 37°C in a humidified atmosphere of 5% CO₂-95% air for 44 hours. The proliferation of T lymphocytes was assessed by measurement of tritiated thymidine incorporation. After 44 hours of culturing, the cells were pulse-labelled with 2 »Ci/well of tritiated thymidine (NEN, Cambridge, MA). After another 4 hours of incubation, cultures were harvested on glass fiber filters using a multiple sample harvester. Radioactivity of filter discs corresponding to individual wells was measured by standard liquid scintillation counting methods (Betacounter). Mean counts per minute of replicate wells were calculated and the results expressed as percent inhibition of tritiated thymidine uptake (proliferation) as follows: [formula]
• 1. Mouse T cell cultures were pulsed with ³H-thymidine for 4 hours prior to harvesting at 48 hours. • 2. […] IC₅₀ = 1.4 ng/ml = 1.81 nM, for demethimmunomycin, (L-638,742), and generally in the range of 1.6 to 1.9 x 10⁻⁹ molar. • 4. Inhibition of T-cell proliferation by demethimmunomycin was reversed by the addition of 50»/ml of IL-2 (recombinant IL-2) at the initiation of culture.

[1] = Mus musculus, T-lymphocyte, 48 h

CC[C@@H]1/C=C(\C)C[C@H](C)C[C@H](OC)[C@H]2O[C@@](O)(C(=O)C(=O)N3CCCC[C@H]3C(=O)O[C@H](/C(C)=C/[C@@H]3CC[C@@H](O)[C@H](O)C3)[C@H](C)[C@@H](O)CC1=O)[C@H](C)C[C@@H]2OC [demethimmunomycin, 31-desmethoxy-31-hydroxy-L-683,590]
inhibition at 0.0006 µg/mL [1]: 0% | inhibition at 0.0009 µg/mL [1]: 9% | inhibition at 0.0013 µg/mL [1]: 38.2% | inhibition at 0.0019 µg/mL [1]: 72.1% | inhibition at 0.0029 µg/mL [1]: 86.3% | inhibition at 0.0044 µg/mL [1]: 91.9% | inhibition at 0.0066 µg/mL [1]: 97.9% | IC50 (Mus musculus, T-lymphocyte): 1.4 ng/mL | IC50 (Mus musculus, T-lymphocyte, range generally found): 1.6 to 1.9 nM | IC50 (Mus musculus, T-lymphocyte, same value as 1.4 ng/ml, given in molar terms): 1.81 nM | Inhibition of T-cell proliferation on addition of IL-2 (addition of recombinant IL-2 at the initiation of culture): reversed
